Values quoted from earlier work, collected in patent publication US20220409351A1, “ORAL APPLIANCE FOR DELIVERY OF AN ANTIMICROBIAL COMPOSITION” (Emanate Biomedical, Inc., priority 2019, published 2022).

Key:
oral pathogenic bacteria [1] = conditions: against oral pathogenic bacteria
oral pathogenic bacteria [2] = conditions: at 10 minutes

MIC (oral pathogenic bacteria [1]): 0.0125 % w/v
Compound: [H]/N=C(\N/C(=N/[H])NCCCCCCNC(=N)NC(=N)Nc1ccc(Cl)cc1)Nc1ccc(Cl)cc1 [Chlorhexidine, chlorhexidine]
MBC (oral pathogenic bacteria [2]): 0.5 % w/v
